Converted amounts (≈) assume the structure as drawn.
Tests used:
Format in all cases: functional
Morganella morganii [1] = assay: Antibacterial activity against ceftazidime-susceptible Morganella morganii assessed as resistant isolates by CLSI M7-A7 broth microdilution method
Enterobacteriaceae [2] = assay: Antibacterial activity against ceftazidime-susceptible Enterobacteriaceae assessed as resistant isolates by CLSI M7-A7 broth microdilution method
Escherichia coli [3] = assay: Antibacterial activity against ceftazidime-nonsusceptible Escherichia coli assessed as resistant isolates by CLSI M7-A7 broth microdilution method
Haemophilus influenzae [4] = assay: Antibacterial activity against beta lactamase-negative Haemophilus influenzae assessed as resistant isolates by CLSI M7-A7 broth microdilution method
Enterobacter cloacae [5] = assay: Antibacterial activity against ceftazidime-susceptible Enterobacter cloacae assessed as resistant isolates by CLSI M7-A7 broth microdilution method
Proteus mirabilis [6] = assay: Antibacterial activity against ceftazidime-susceptible Proteus mirabilis assessed as susceptible isolates by CLSI M7-A7 broth microdilution method
Enterobacter cloacae [7] = assay: Antibacterial activity against ceftazidime-nonsusceptible Enterobacter cloacae assessed as resistant isolates by CLSI M7-A7 broth microdilution method
Klebsiella pneumoniae [8] = assay: Antibacterial activity against ceftazidime-nonsusceptible Klebsiella pneumoniae assessed as resistant isolates by CLSI M7-A7 broth microdilution method
Acinetobacter [9] = assay: Antibacterial activity against imipenem-susceptible Acinetobacter by CLSI M7-A7 broth microdilution method
Klebsiella pneumoniae [10] = assay: Antibacterial activity against ceftazidime-susceptible Klebsiella pneumoniae by CLSI M7-A7 broth microdilution method
Haemophilus influenzae [11] = assay: Antibacterial activity against beta lactamase-positive Haemophilus influenzae assessed as susceptible isolates by CLSI M7-A7 broth microdilution method
Enterobacter cloacae [12] = assay: Antibacterial activity against ceftazidime-nonsusceptible Enterobacter cloacae by CLSI M7-A7 broth microdilution method
Enterobacteriaceae [13] = assay: Antibacterial activity against ceftazidime-nonsusceptible Enterobacteriaceae by CLSI M7-A7 broth microdilution method
Enterobacter cloacae [14] = assay: Antibacterial activity against ceftazidime-susceptible Enterobacter cloacae by CLSI M7-A7 broth microdilution method
Enterobacteriaceae [15] = assay: Antibacterial activity against ceftazidime-nonsusceptible Enterobacteriaceae assessed as susceptible isolates by CLSI M7-A7 broth microdilution method
Proteus mirabilis [16] = assay: Antibacterial activity against ceftazidime-susceptible Proteus mirabilis by CLSI M7-A7 broth microdilution method
Klebsiella pneumoniae [17] = assay: Antibacterial activity against ceftazidime-susceptible Klebsiella pneumoniae assessed as resistant isolates by CLSI M7-A7 broth microdilution method
Serratia marcescens [18] = assay: Antibacterial activity against ceftazidime-susceptible Serratia marcescens assessed as susceptible isolates by CLSI M7-A7 broth microdilution method
Klebsiella pneumoniae [19] = assay: Antibacterial activity against ceftazidime-nonsusceptible Klebsiella pneumoniae assessed as susceptible isolates by CLSI M7-A7 broth microdilution method
Haemophilus influenzae [20] = assay: Antibacterial activity against beta lactamase-negative Haemophilus influenzae by CLSI M7-A7 broth microdilution method
Escherichia coli [21] = assay: Antibacterial activity against ceftazidime-susceptible Escherichia coli assessed as susceptible isolates by CLSI M7-A7 broth microdilution method
Enterobacter cloacae [22] = assay: Antibacterial activity against ceftazidime-susceptible Enterobacter cloacae assessed as susceptible isolates by CLSI M7-A7 broth microdilution method
Proteus mirabilis [23] = assay: Antibacterial activity against ceftazidime-susceptible Proteus mirabilis assessed as resistant isolates by CLSI M7-A7 broth microdilution method
Citrobacter freundii [24] = assay: Antibacterial activity against ceftazidime-nonsusceptible Citrobacter freundii by CLSI M7-A7 broth microdilution method
Haemophilus influenzae [25] = assay: Antibacterial activity against beta lactamase-positive Haemophilus influenzae assessed as resistant isolates by CLSI M7-A7 broth microdilution method
Citrobacter freundii [26] = assay: Antibacterial activity against ceftazidime-susceptible Citrobacter freundii assessed as resistant isolates by CLSI M7-A7 broth microdilution method
Escherichia coli [27] = assay: Antibacterial activity against ceftazidime-susceptible Escherichia coli by CLSI M7-A7 broth microdilution method
Enterobacter cloacae [28] = assay: Antibacterial activity against ceftazidime-nonsusceptible Enterobacter cloacae assessed as susceptible isolates by CLSI M7-A7 broth microdilution method
Citrobacter freundii [29] = assay: Antibacterial activity against ceftazidime-nonsusceptible Citrobacter freundii assessed as susceptible isolates by CLSI M7-A7 broth microdilution method
Klebsiella pneumoniae [30] = assay: Antibacterial activity against ceftazidime-susceptible Klebsiella pneumoniae assessed as susceptible isolates by CLSI M7-A7 broth microdilution method
Providencia sp. [31] = assay: Antibacterial activity against ceftazidime-susceptible Providencia sp. assessed as resistant isolates by CLSI M7-A7 broth microdilution method
Escherichia coli [32] = assay: Antibacterial activity against ceftazidime-nonsusceptible Escherichia coli by CLSI M7-A7 broth microdilution method
Morganella morganii [33] = assay: Antibacterial activity against ceftazidime-susceptible Morganella morganii assessed as susceptible isolates by CLSI M7-A7 broth microdilution method
Providencia sp. [34] = assay: Antibacterial activity against ceftazidime-susceptible Providencia sp. assessed as susceptible isolates by CLSI M7-A7 broth microdilution method
Providencia sp. [35] = assay: Antibacterial activity against ceftazidime-susceptible Providencia sp. by CLSI M7-A7 broth microdilution method
Serratia marcescens [36] = assay: Antibacterial activity against ceftazidime-susceptible Serratia marcescens assessed as resistant isolates by CLSI M7-A7 broth microdilution method
Enterobacteriaceae [37] = assay: Antibacterial activity against ceftazidime-susceptible Enterobacteriaceae assessed as susceptible isolates by CLSI M7-A7 broth microdilution method
Escherichia coli [38] = assay: Antibacterial activity against ceftazidime-nonsusceptible Escherichia coli assessed as susceptible isolates by CLSI M7-A7 broth microdilution method
Enterobacteriaceae [39] = assay: Antibacterial activity against ceftazidime-susceptible Enterobacteriaceae by CLSI M7-A7 broth microdilution method
Citrobacter freundii [40] = assay: Antibacterial activity against ceftazidime-nonsusceptible Citrobacter freundii assessed as resistant isolates by CLSI M7-A7 broth microdilution method
Serratia marcescens [41] = assay: Antibacterial activity against ceftazidime-susceptible Serratia marcescens by CLSI M7-A7 broth microdilution method
Enterobacteriaceae [42] = assay: Antibacterial activity against ceftazidime-nonsusceptible Enterobacteriaceae assessed as resistant isolates by CLSI M7-A7 broth microdilution method
Klebsiella pneumoniae [43] = assay: Antibacterial activity against ceftazidime-nonsusceptible Klebsiella pneumoniae by CLSI M7-A7 broth microdilution method
Morganella morganii [44] = assay: Antibacterial activity against ceftazidime-susceptible Morganella morganii by CLSI M7-A7 broth microdilution method
Haemophilus influenzae [45] = assay: Antibacterial activity against beta lactamase-positive Haemophilus influenzae by CLSI M7-A7 broth microdilution method
Acinetobacter [46] = assay: Antibacterial activity against multidrug-resistant Acinetobacter by CLSI M7-A7 broth microdilution method
Haemophilus influenzae [47] = assay: Antibacterial activity against beta lactamase-negative Haemophilus influenzae assessed as susceptible isolates by CLSI M7-A7 broth microdilution method
Escherichia coli [48] = assay: Antibacterial activity against ceftazidime-susceptible Escherichia coli assessed as resistant isolates by CLSI M7-A7 broth microdilution method
Citrobacter freundii [49] = assay: Antibacterial activity against ceftazidime-susceptible Citrobacter freundii assessed as susceptible isolates by CLSI M7-A7 broth microdilution method
Citrobacter freundii [50] = assay: Antibacterial activity against ceftazidime-susceptible Citrobacter freundii by CLSI M7-A7 broth microdilution method

CC1(C)S[C@@H]2[C@H](NC(=O)[C@H](N)c3ccccc3)C(=O)N2[C@H]1C(=O)O [AMPICILLIN] gave an Activity (Morganella morganii [1]) of 85.3%, an Activity (Enterobacteriaceae [2]) of 57% and an Activity (Escherichia coli [3]) of 100%. The Activity (Haemophilus influenzae [4]) was 1%, the Activity (Enterobacter cloacae [5]) was 66% and the Activity (Proteus mirabilis [6]) was 72.4%. It also gave an Activity (Enterobacter cloacae [7]) of 100%, an Activity (Klebsiella pneumoniae [8]) of 100% and an MIC50 (Acinetobacter [9]) of 16 µg/mL (≈ 45.8 µM). For the same compound, the MIC90 (Acinetobacter [9]) was over 32 µg/mL, the MIC50 (Klebsiella pneumoniae [10]) was over 32 µg/mL and the MIC90 (Klebsiella pneumoniae [10]) was over 32 µg/mL. For the same compound, the Activity (Haemophilus influenzae [11]) was 2%, the MIC (Enterobacter cloacae [12]) was over 32 µg/mL and the MIC50 (Enterobacter cloacae [12]) was over 32 µg/mL. For the same compound, the MIC90 (Enterobacter cloacae [12]) was over 16 µg/mL, the MIC (Enterobacteriaceae [13]) was over 32 µg/mL and the MIC50 (Enterobacteriaceae [13]) was over 32 µg/mL. For the same compound, the MIC90 (Enterobacteriaceae [13]) was over 32 µg/mL, the MIC50 (Enterobacter cloacae [14]) was 32 µg/mL (≈ 91.6 µM) and the MIC90 (Enterobacter cloacae [14]) was over 32 µg/mL. The Activity (Enterobacteriaceae [15]) was 0%, the MIC50 (Proteus mirabilis [16]) was 1 µg/mL (≈ 2.86 µM) and the MIC90 (Proteus mirabilis [16]) was over 32 µg/mL. It also gave an Activity (Klebsiella pneumoniae [17]) of 80%, an Activity (Serratia marcescens [18]) of 3.4% and an Activity (Klebsiella pneumoniae [19]) of 0%. The MIC (Haemophilus influenzae [20]) was at most 0.25 µg/mL, the MIC50 (Haemophilus influenzae [20]) was at most 0.25 µg/mL and the MIC90 (Haemophilus influenzae [20]) was 0.5 µg/mL (≈ 1.43 µM). For the same compound, the Activity (Escherichia coli [21]) was 58.3%, the Activity (Enterobacter cloacae [22]) was 20% and the Activity (Proteus mirabilis [23]) was 27.6%. For the same compound, the MIC (Citrobacter freundii [24]) was over 32 µg/mL, the MIC50 (Citrobacter freundii [24]) was over 32 µg/mL and the MIC90 (Citrobacter freundii [24]) was over 32 µg/mL. For the same compound, the Activity (Haemophilus influenzae [25]) was 97%, the Activity (Citrobacter freundii [26]) was 42% and the MIC50 (Escherichia coli [27]) was 4 µg/mL (≈ 11.4 µM). The MIC90 (Escherichia coli [27]) was over 32 µg/mL, the Activity (Enterobacter cloacae [28]) was 0% and the Activity (Citrobacter freundii [29]) was 0%. For the same compound, the Activity (Klebsiella pneumoniae [30]) was 5.2%, the Activity (Providencia sp. [31]) was 66.7% and the MIC (Escherichia coli [32]) was over 32 µg/mL. The MIC50 (Escherichia coli [32]) was over 32 µg/mL, the MIC90 (Escherichia coli [32]) was over 32 µg/mL and the Activity (Morganella morganii [33]) was 8.8%. The Activity (Providencia sp. [34]) was 22.2%, the MIC50 (Providencia sp. [35]) was 32 µg/mL (≈ 91.6 µM) and the MIC90 (Providencia sp. [35]) was over 32 µg/mL. For the same compound, the Activity (Serratia marcescens [36]) was 83.1%, the Activity (Enterobacteriaceae [37]) was 35.2% and the Activity (Escherichia coli [38]) was 0%. For the same compound, the MIC50 (Enterobacteriaceae [39]) was 32 µg/mL (≈ 91.6 µM), the MIC90 (Enterobacteriaceae [39]) was over 32 µg/mL and the Activity (Citrobacter freundii [40]) was 100%. The MIC50 (Serratia marcescens [41]) was over 32 µg/mL, the MIC90 (Serratia marcescens [41]) was over 32 µg/mL and the Activity (Enterobacteriaceae [42]) was 100%. For the same compound, the MIC (Klebsiella pneumoniae [43]) was over 32 µg/mL, the MIC50 (Klebsiella pneumoniae [43]) was over 32 µg/mL and the MIC90 (Klebsiella pneumoniae [43]) was over 32 µg/mL. The MIC50 (Morganella morganii [44]) was over 32 µg/mL, the MIC90 (Morganella morganii [44]) was over 32 µg/mL and the MIC50 (Haemophilus influenzae [45]) was 32 µg/mL (≈ 91.6 µM). The MIC90 (Haemophilus influenzae [45]) was over 32 µg/mL, the MIC (Acinetobacter [46]) was over 32 µg/mL and the MIC50 (Acinetobacter [46]) was over 32 µg/mL. It also gave an Activity (Haemophilus influenzae [47]) of 99%, an Activity (Escherichia coli [48]) of 40.9% and an Activity (Citrobacter freundii [49]) of 36%. For the same compound, the MIC50 (Citrobacter freundii [50]) was 16 µg/mL (≈ 45.8 µM) and the MIC90 (Citrobacter freundii [50]) was over 32 µg/mL.

Reference: ChEMBL document CHEMBL1671626, “In vitro profiling of ceftaroline against a collection of recent bacterial clinical isolates from across the United States” (2008)
